# Data reported in patent US10391095B2, “DNA-PK inhibitors” (Vertex Pharmaceuticals Incorporated, priority 2012, dated 2019).
# Biological target: DNA-PK (Homo sapiens, UniProt P78527)
# Test: DNA-PK inhibition assay (radiometric, 33P-ATP)
# Type: biochemical
# Settings: 100 μM ATP, competitive tight-binding fit
# Procedure, shortened: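 Approx. 6 nM DNA-PK with 10 µg/mL sheared dsDNA, 0.8 mg/mL peptide substrate and 100 µM 33P-ATP in HEPES pH 7.5, 10 mM MgCl2; 45 min, phosphoric acid quench. Phosphopeptide captured on filter plates and counted by scintillation; Ki from a competitive tight-binding model fit.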
row,Structure (SMILES),Ki
1,CNC(=O)c1ccnc2c([C@H](C)CNc3cc(-c4ccc(NCC(=O)N(C)C)nc4)ncn3)cccc12 [Compound 633],< 30 nM
2,CC(=O)N1CCOc2c([C@H](C)CNc3cc(-c4ccc(C)nc4)ncn3)cccc21 [Compound 504],< 30 nM
3,Cc1cc([C@H](C)CNc2cc(-c3cnc4c(cnn4CCO)c3)ncn2)c2c(n1)CCO2 [Compound 505],< 30 nM
4,Cc1ccc(-c2cc(NC[C@@H](C)c3ccccc3O)ncn2)cn1 [Compound 109],< 30 nM
5,Cc1ccc(-c2cc(NC[C@@H](C)c3cccc4c(=O)n(C)cnc34)ncn2)cn1 [Compound 698],< 30 nM
6,COc1ccccc1[C@H](C)CNc1cc(-c2ccc(F)nc2)ncn1 [Compound 96],< 30 nM
7,COc1ccccc1CCNc1cc(-c2cnc3c(ccn3C)c2)ncn1 [Compound 34],< 30 nM
8,COc1ccccc1[C@H](C)CNc1cc(-c2ccnc(NCCCO)c2)ncn1 [Compound 206],< 30 nM
9,CC(CNc1cc(-c2ccc(N3CCN(C)CC3)nc2)ncn1)c1ccccc1OC(F)F (stereo not drawn) [Compound 63],< 30 nM
10,CNc1ncc(-c2cc(NC[C@@H](C)c3ccnc4cccnc34)ncn2)cn1 [Compound 497],< 30 nM
11,C[C@H](CNc1cc(-c2cnc3c(cnn3CCO)c2)ncn1)c1ccnc2cccnc12 [Compound 472],< 30 nM
12,CNC(=O)c1ccc([C@H](C)CNc2cc(-c3ccc4c(c3)CC(=O)N4)ncn2)c(OC)c1 [Compound 310],< 30 nM
13,CNC(=O)c1ccc([C@H](C)CNc2cc(-c3ccc(NCC(F)F)nc3)ncn2)c(OC)c1 [Compound 390],< 30 nM
14,CNC(=O)c1ccc([C@H](C)CNc2cc(-c3cn(C4COC4)c4ncccc34)ncn2)c(OC)c1 [Compound 481],< 30 nM
15,CCOc1ccccc1C(C)CNc1cc(-c2ccc(N3CCN(C)CC3)nc2)ncn1 (stereo not drawn) [Compound 92],< 30 nM
16,CNCCN(C)c1ccc(-c2cc(NC[C@@H](C)c3ccc(C(=O)NC)cc3OC)ncn2)cn1 [Compound 368],< 30 nM
17,COCCn1ncc2cc(-c3cc(NCC(C)c4ccccc4OC4COC4)ncn3)cnc21 (stereo not drawn) [Compound 215],< 30 nM
18,C[C@H](CNc1cc(-c2ccc(N)nc2)ncn1)c1ccnc2c1OCCO2 [Compound 459],< 30 nM
19,Cc1ccc(-c2cc(NCC(C)c3ccccc3OC3CCCCC3)ncn2)cn1 (stereo not drawn) [Compound 183],< 30 nM
20,CC(CNc1cc(-c2cnc3c(cnn3CCO)c2)ncn1)c1ccnc2ccoc12 (stereo not drawn) [Compound 429],< 30 nM
21,CNC(=O)c1ccc([C@H](C)CNc2cc(-c3ccc4c(c3)ncn4C)ncn2)c(OC)c1 [Compound 263],< 30 nM
22,CNC(=O)c1ccnc2c([C@H](C)CNc3cc(-c4cnc(OC)c(OC)c4)ncn3)cccc12 [Compound 592],< 30 nM
23,C=C(C)CNc1ccc(-c2cc(NC[C@@H](C)c3ccc(C(=O)NC)cc3OC)ncn2)cn1 [Compound 389],< 30 nM

row,Structure (SMILES),Ki
1,COc1ccccc1[C@H](C)CNc1cc(-c2cnc3c(cnn3C3CCN(C)CC3)c2)ncn1 [Compound 83],< 30 nM
2,COc1cc(C(N)=O)ccc1C(C)CNc1cc(-c2ccc(N3CCN(C(C)=O)CC3)nc2)ncn1 (stereo not drawn) [Compound 131],< 30 nM
3,CNC(=O)c1ccnc2c([C@H](C)CNc3cc(-c4ccn(C)c(=O)c4)ncn3)cccc12 [Compound 656],< 30 nM
4,C[C@H](CNc1cc(-c2cc(C(F)(F)F)c3ncccc3c2)ncn1)c1ccnc2c1OCC2 [Compound 591],< 30 nM
5,"CC(O)Cn1ncc2cc(-c3cc(NC[C@@H](C)c4ccnc5c4OCCO5)ncn3)cnc21 (single isomer, unassigned) [Compound 503]",< 30 nM
6,CNC(=O)c1ccc([C@H](C)CNc2cc(-c3ccc(Nc4nc[nH]n4)nc3)ncn2)c(OC)c1 [Compound 354],< 30 nM
7,CNC(=O)c1ccc([C@H](C)CNc2cc(-c3ccc(N(C)C)nc3)ncn2)c(OC)c1 [Compound 359],< 30 nM
8,CNC(=O)c1ccc([C@H](C)CNc2cc(-c3cnc4c(cnn4C4CCN(C)CC4)c3)ncn2)c(OC)c1 [Compound 286],< 30 nM
9,CNC(=O)c1ccnc2c([C@H](C)CNc3cc(-c4ccc(C)nc4)ncn3)cc(F)c(F)c12 [Compound 638],< 30 nM
10,COc1ccccc1CCNc1cc(-c2ccc(C)nc2)ncn1 [Compound 11],< 30 nM
11,"COc1ccccc1[C@H](C)CNc1cc(-c2cnc3c(cnn3CC(O)CO)c2)ncn1 (single isomer, unassigned) [Compound 149]",< 30 nM
12,C[C@H](CNc1cc(-c2ccc(N3CCN(C)CC3)nc2)ncn1)c1ccccc1OC1CC1 [Compound 114],< 30 nM
13,CNC(=O)c1ccnc2c([C@H](C)CNc3cc(-c4cnn(C)c4)ncn3)cccc12 [Compound 661],< 30 nM
14,CCNc1ncc(-c2cc(NC[C@@H](C)c3ccc(C(=O)NC)cc3OC)ncn2)cn1 [Compound 585],< 30 nM
15,Cc1ccc(-c2cc(NC[C@@H](C)c3cccc4c(C(=O)NCC(F)F)ccnc34)ncn2)cn1 [Compound 569],< 30 nM
16,CNC(=O)c1ccnc2c([C@H](C)CNc3cc(-c4ccc(C#N)nc4)ncn3)cccc12 [Compound 613],< 30 nM
17,COc1ccccc1CCNc1cc(-c2cnc3c(cnn3C)c2)ncn1 [Compound 42],< 30 nM
18,COCCn1ncc2cc(-c3cc(NCC(C)c4cnccc4OC4CC4)ncn3)cnc21 (stereo not drawn) [Compound 176],< 30 nM
19,CNC(=O)c1ccc(C(C)CNc2cc(-c3ccc(OC4CN(C(C)=O)C4)nc3)ncn2)c(OC)c1 (stereo not drawn) [Compound 327],< 30 nM
20,COCCn1ncc2cc(-c3cc(NCC(C)c4ccsc4OC)ncn3)cnc21 (stereo not drawn) [Compound 258],< 30 nM
21,COc1ccccc1CCNc1cc(-c2cnc3c(cnn3CS(C)(=O)=O)c2)ncn1 [Compound 97],< 30 nM
22,CNC(=O)CNc1ccc(-c2cc(NC[C@@H](C)c3cccc4c(C(=O)NC)ccnc34)ncn2)cn1 [Compound 632],< 30 nM

# Next, values leading:
row,Ki,Structure (SMILES)
1,< 30 nM,CNC(=O)c1ccnc2c([C@H](C)CNc3cc(-c4ccc(C5(O)COC5)cc4)ncn3)cccc12 [Compound 809]
2,< 30 nM,CNC(=O)c1c(F)cnc2c([C@H](C)CNc3cc(-c4cnc(C)s4)ncn3)cccc12 [Compound 828]
3,< 30 nM,CNC(=O)c1ccc(-c2cc(NC[C@@H](C)c3cccc4c(C(=O)NC)ccnc34)ncn2)cc1F [Compound 807]
4,< 30 nM,CNC(=O)c1ccnc2c([C@H](C)CNc3cc(-c4ccc(OCCN5CCCC5)cc4)ncn3)cccc12 [Compound 727]
5,< 30 nM,CNC(=O)c1ccnc2c([C@H](C)CNc3cc(-c4ccc(NCCN5CCNC5=O)nc4)ncn3)cccc12 [Compound 719]
6,< 30 nM,Cc1ccc(-c2cc(NC[C@@H](C)c3cncc4c3OCCN4)ncn2)cn1 [Compound 837]
7,< 30 nM,CNC(=O)c1ccnc2c([C@H](C)CNc3cc(-c4ccc(NCC(F)F)nc4)ncn3)cccc12 [Compound 975]
8,< 30 nM,CNC(=O)c1ccnc2c([C@H](C)CNc3cc(-c4ccnc(C5CC5)c4)ncn3)ccc(F)c12 [Compound 914]
9,< 30 nM,CNC(=O)c1ccnc2c([C@H](C)CNc3cc(-c4cncc(C)c4)ncn3)cccc12 [Compound 792]
10,< 30 nM,CNC(=O)c1c(F)cnc2c([C@H](C)CNc3cc(-c4cnc5c(c4)COC5)ncn3)cccc12 [Compound 966]
11,< 30 nM,CNC(=O)c1ccnc2c([C@H](C)CNc3cc(-c4ccc(OCC5CC5)nc4)ncn3)ccc(F)c12 [Compound 904]
12,< 30 nM,CNC(=O)c1ccnc2c([C@H](C)CNc3cc(-c4ccc(NC5CCN(Cc6ccccc6)C5)nc4)ncn3)cccc12 (stereo partly drawn) [Compound 701]
13,< 30 nM,CNC(=O)c1ccnc2c([C@H](C)CNc3cc(-c4ccc(CC(C)C)nc4)ncn3)cccc12 [Compound 816]
14,< 30 nM,CNC(=O)c1ccnc2c([C@H](C)CNc3cc(-c4ccnc(N5CCOCC5)c4)ncn3)cccc12 [Compound 818]
15,< 30 nM,CNC(=O)c1ccnc2c([C@H](C)CNc3cc(-c4ccc5c(c4)CCN(C(C)=O)C5)ncn3)cccc12 [Compound 803]
16,< 30 nM,CNC(=O)c1ccnc2c([C@H](C)CNc3cc(-c4cnc5c(c4)CCN5)ncn3)cccc12 [Compound 954]
17,< 30 nM,CNC(=O)c1ccnc2c([C@H](C)CNc3cc(-c4ccc(OCC5CC5)nc4)ncn3)cccc12 [Compound 891]
18,< 30 nM,CNC(=O)c1ccnc2c([C@H](C)CNc3cc(-c4cnc(NC)c(C#N)c4)ncn3)cccc12 [Compound 955]
19,< 30 nM,CNC(=O)c1ccnc2c([C@H](C)CNc3cc(-c4ccc(N5CCN(C(C)C)CC5)nc4)ncn3)cccc12 [Compound 722]
20,< 30 nM,CNC(=O)c1ccnc2c([C@H](C)CNc3cc(-c4cncc(CO)c4)ncn3)cccc12 [Compound 956]
21,< 30 nM,CNC(=O)c1c(F)cnc2c([C@H](C)CNc3cc(-c4cn[nH]c4)ncn3)cccc12 [Compound 785]
22,< 30 nM,CNC(=O)c1c(F)cnc2c([C@H](C)CNc3cc(-c4ccc(C5CC5)nc4)ncn3)cccc12 [Compound 857]
23,< 30 nM,CNC(=O)c1ccnc2c([C@H](C)CNc3cc(-c4ccc(C(C)O)nc4)ncn3)cccc12 (stereo partly drawn) [Compound 730]
24,< 30 nM,CNC(=O)c1ccnc2c([C@H](C)CNc3cc(-c4ccc(N5CCC(C)(O)C5)nc4)ncn3)cccc12 (stereo partly drawn) [Compound 732]
25,< 30 nM,CNC(=O)c1ccnc2c([C@H](C)CNc3cc(-c4ccc(N5CCC(C(C)(C)O)CC5)nc4)ncn3)cccc12 [Compound 734]
26,< 30 nM,CNC(=O)c1c(F)cnc2c([C@H](C)CNc3cc(-c4ccc(C5CCC5)nc4)ncn3)cccc12 [Compound 855]
27,< 30 nM,CNC(=O)c1ccnc2c([C@H](C)CNc3cc(-c4cnc(C)c(C)c4)ncn3)cccc12 [Compound 870]
28,< 30 nM,CNC(=O)c1c(F)cnc2c([C@H](C)CNc3cc(-c4ccc(C(C)C)nc4)ncn3)cccc12 [Compound 858]
29,< 30 nM,CNC(=O)c1ccnc2c([C@H](C)CNc3cc(-c4cnnc(C)c4)ncn3)ccc(F)c12 [Compound 969]
30,< 30 nM,CNC(=O)c1c(NC)cnc2c([C@H](C)CNc3cc(-c4ccc(C)nc4)ncn3)cccc12 [Compound 764]
